Data: ChEMBL document CHEMBL6127026, “Design, synthesis and anti-HBV activity study of novel HBV capsid assembly modulators” (Bioorg Med Chem Lett, 2024)

Columns and labels:
[1] = Cytotoxicity against human HePAD38 cells by CCK8 assay; format: toxicity, cell-based
[2] = Selectivity index, ratio of CC50 for human HePAD38 cells to EC50 for hepatitis B virus infected in HePAD38 cells; format: toxicity, cell-based; details: read-out: Ratio CC50/EC50
[3] = tested on: Hepatitis B virus; assay: Antiviral activity against Hepatitis B virus infected in human HePAD38 cells assessed as inhibition of viral DNA replication by qPCR analysis; format: functional, organism-based
[4] = Metabolic stability in human plasma assessed as parent compound remaining measured after 120 mins; format: ADME, cell-free; details: read-out: Stability
[5] = Metabolic stability in human liver assessed as intrinsic clearance; format: ADME, tissue-based; details: read-out: CLH
[6] = Metabolic stability in human liver microsomes assessed as half-life; format: ADME, Microsome
[7] = Metabolic stability in human liver microsomes assessed as intrinsic clearance; format: ADME, Microsome; details: read-out: CLH
[8] = Metabolic stability in human plasma assessed as half-life; format: ADME, cell-free
[9] = Metabolic stability in human plasma assessed as parent compound remaining measured after 60 mins; format: ADME, cell-free; details: read-out: Stability
[10] = Octanol/water partition coefficient, log P of the compound; format: physicochemical
[11] = Metabolic stability in human liver microsomes assessed as parent compound remaining measured after 60 mins in presence of NADPH co-factor; format: ADME, Microsome; details: read-out: Stability
[12] = Metabolic stability in human liver microsomes assessed as parent compound remaining measured after 60 mins in absence of NADPH co-factor; format: ADME, Microsome; details: read-out: Stability
[13] = Metabolic stability in human plasma assessed as parent compound remaining measured immediately; format: ADME, cell-free; details: read-out: Stability
[14] = target: Core antigen (Hepatitis B virus, UniProt Q03732); assay: Inhibition of Hepatitis B virus Capsid protein assembly activity by fluorescence based analysis
[15] = Metabolic stability in human plasma assessed as parent compound remaining measured after 30 mins; format: ADME, cell-free; details: read-out: Stability
[16] = Metabolic stability in human plasma assessed as parent compound remaining measured after 10 mins; format: ADME, cell-free; details: read-out: Stability
[17] = Cmax in male Beagle dog at 1.5 mg/kg, po administered via gavage and measured after 24 hrs by LC-MS/MS analysis; format: ADME, organism-based, Canis lupus familiaris; details: in vivo
[18] = AUC (0 to infinity) in male Beagle dog at 1.5 mg/kg, po administered via gavage and measured after 24 hrs by LC-MS/MS analysis; format: ADME, organism-based, Canis lupus familiaris; details: in vivo

Chain of Core antigen (Q03732 whole entry): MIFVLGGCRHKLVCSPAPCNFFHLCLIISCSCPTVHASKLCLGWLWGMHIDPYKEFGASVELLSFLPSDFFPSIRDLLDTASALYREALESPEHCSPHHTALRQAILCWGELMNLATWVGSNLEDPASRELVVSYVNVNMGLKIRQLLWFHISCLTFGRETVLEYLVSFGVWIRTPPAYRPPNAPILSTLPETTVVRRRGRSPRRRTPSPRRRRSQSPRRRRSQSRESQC

Row | SMILES | EC50 [3] | CC50 [1] | selectivity ratio [2] | also measured
1 | Cc1cc(NC(=O)c2cc(S(=O)(=O)NC3CCCC3)cc3c2OCCO3)ccc1F | 0.49 µM | 51 µM | 104 | 
2 | O=C(NC1CCCC1)c1cc2c(c(S(=O)(=O)Nc3cc(F)c(F)c(F)c3)c1)OCCO2 | 7.36 µM | 20.5 µM | 2.79 | 
3 | O=C(Nc1cc(F)c(F)c(F)c1)c1cc(S(=O)(=O)NC2CCCC2)cc2c1OCCO2 | 0.24 µM | > 100 µM | > 419 | remaining at 2 h [4]: 99.4%; CLint scaled [5]: 89.8 mL/min/kg; half-life [6]: 13.9 min; microsomal CLint [7]: 99.8 µL/min/mg; half-life [8]: > 289 min; remaining at 1 h [9]: 115%; logP ([10]; read-out: logP): 1.59; remaining at 1 h [11]: 5%; remaining at 1 h [12]: 84.1%; remaining at 0 min [13]: 100%; IC50 [14]: 1.45 µM; remaining at 0.5 h [15]: 112%; remaining at 10 min [16]: 115%
4 | O=C(Nc1ccc(F)c(Cl)c1)c1cc(S(=O)(=O)NC2CCCC2)cc2c1OCCO2 | 0.5 µM | 48.2 µM | 95.5 | IC50 [14]: 4.22 µM
5 | CC(C)[N+](C)(CCOC(=O)C1c2ccccc2Oc2ccccc21)C(C)C.[Br-] [PROPANTHELINE BROMIDE] |  |  |  | half-life [8]: 7.4 min; remaining at 1 h [9]: 0.4%; remaining at 0.5 h [15]: 8.3%; remaining at 10 min [16]: 52%
6 | O=C(Nc1cc(F)cc(F)c1)c1cc(S(=O)(=O)NC2CCCC2)cc2c1OCCO2 | 0.43 µM | > 100 µM | > 232 | 
7 | O=C(O)Cc1ccccc1Nc1c(Cl)cccc1Cl [DICLOFENAC] |  |  |  | CLint scaled [5]: 232 mL/min/kg
8 | O=C(Nc1ccc(F)c(Cl)c1)c1cc(S(=O)(=O)Nc2nccs2)cc2c1OCCO2 | > 20 µM | > 100 µM |  | 
9 | O=C(NC1CCCC1)c1cc(S(=O)(=O)Nc2ccc(F)c(Cl)c2)cc2c1OCCO2 | 1.07 µM | > 100 µM | > 93 | 
10 | N#Cc1cc(NC(=O)c2cc(S(=O)(=O)NC3CCCC3)cc3c2OCCO3)ccc1F | 1.53 µM | > 100 µM | > 65.3 | 

Continued, in another order:

Row | EC50 [3] | SMILES | CC50 [1] | selectivity ratio [2] | also measured
11 | 4.56 µM | O=C(Nc1ccc(F)c(Cl)c1)c1cc2c(c(S(=O)(=O)Nc3ccc(F)c(Cl)c3)c1)OCCO2 | 6.64 µM | 1.46 | 
12 | > 20 µM | O=C(NC1CCCC1)c1cc(S(=O)(=O)NC2CCCC2)cc2c1OCCO2 | > 100 µM |  | 
13 | > 20 µM | O=C(c1cc(S(=O)(=O)NC2CCCC2)cc2c1OCCO2)N1CCC(O)CC1 | > 100 µM |  | 
14 | 0.91 µM | O=C(Nc1ccc(F)c(F)c1)c1cc(S(=O)(=O)NC2CCCC2)cc2c1OCCO2 | 81.4 µM | 89 | 
15 | > 20 µM | O=C(NC1CCCC1)c1cc2c(c(S(=O)(=O)Nc3ccc(F)c(Cl)c3)c1)OCCO2 | > 100 µM |  | 
16 | > 20 µM | O=C(NC1CCCC1)c1cc(S(=O)(=O)Nc2cc(F)c(F)c(F)c2)cc2c1OCCO2 | > 100 µM |  | 
17 | 1 µM | O=C(Nc1ccc(F)cc1)c1cc(S(=O)(=O)NC2CCCC2)cc2c1OCCO2 | > 100 µM | > 98.2 | 
18 | 0.86 µM | O=C(Nc1ccc(F)c(Cl)c1)c1cc(S(=O)(=O)Nc2ccsc2)cc2c1OCCO2 | > 100 µM | > 116 | 
19 | 0.29 µM | O=C(Nc1cc(F)c(F)c(F)c1)c1ccc(F)c(S(=O)(=O)N2CCC(O)CC2)c1 | 20.8 µM | 88.4 | logP [10]: 1.75; Cmax [17]: 560 ng/mL; AUC(0-inf) [18]: 3500 ng·h/mL
